# Measured values taken from PMC2806265, “Divergence of allosteric effects of rapacuronium on binding and function of muscarinic receptors” (BMC Pharmacology, 2009).
# Marks after values point to notes of the source that are not given here.
# What was measured:
# [1] = target: T1, M3 muscarinic receptor (Homo sapiens, UniProt P20309); test: [3H]ACh saturation binding
# T1 construct: host or cells: CHO cells, stably transfected; membranes
# Text: (§1) BMAX, maximum binding capacity; KD, equilibrium dissociation constant.
# [2] = test system: nontransfected CHO-K1 cells; test: [35S]GTPγS binding to membranes from nontransfected cells; type: biochemical, Chinese hamster
# Experimental: Figure 6 Effects of rapacuronium on ACh-induced [^35S]GTPγS binding to membranes. Membranes from CHO cells expressing individual subtypes of muscarinic receptors or nontransfected CHO-K1 cells were preincubated for 60 min with buffer (closed symbols) or with rapacuronium (open symbols). […] Data are expressed as fold increase of basal [^35S]GTPγS binding and are presented as means ± SE from 3 independent experiments performed in quadruplicates. Curves are fits of Eq. 5 to data.
# [3] = target: T2, M4 muscarinic receptor (Homo sapiens, UniProt P08173); test: [3H]NMS dissociation; settings: + 100 μM rapacuronium
# T2 sequence (P08173 1-479): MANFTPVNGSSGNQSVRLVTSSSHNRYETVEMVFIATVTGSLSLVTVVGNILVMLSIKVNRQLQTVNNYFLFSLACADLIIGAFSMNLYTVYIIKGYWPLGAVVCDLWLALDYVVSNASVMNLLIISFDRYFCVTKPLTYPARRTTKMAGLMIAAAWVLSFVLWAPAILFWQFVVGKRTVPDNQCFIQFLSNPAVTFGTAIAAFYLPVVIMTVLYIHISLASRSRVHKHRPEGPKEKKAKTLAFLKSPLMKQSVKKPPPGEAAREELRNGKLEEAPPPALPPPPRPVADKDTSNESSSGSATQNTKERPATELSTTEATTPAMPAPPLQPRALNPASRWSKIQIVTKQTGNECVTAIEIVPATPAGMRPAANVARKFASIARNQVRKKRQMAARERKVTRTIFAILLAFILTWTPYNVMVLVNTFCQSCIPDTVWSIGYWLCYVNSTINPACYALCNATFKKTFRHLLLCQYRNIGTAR
# Text: y, radioligand binding at time x normalized to binding at time 0; koff1 and koff2, dissociation rate constants; f2, fraction of binding site with dissociation rate constant koff2. When both Eq. 7a and 7b were fitted to data the better fit was chosen based on sum of squares F-test and runs test.
# [4] = target: T2, M4 muscarinic receptor; test: [3H]NMS saturation binding
# [5] = target: T2, M4 muscarinic receptor; test: Effect of rapacuronium on low-affinity ACh binding ([3H]NMS + GTPγS + ACh); design: host or cells: CHO cells, stably transfected; membranes
# Text: (§2) […]. Data are expressed as percent of specific binding in the absence of rapacuronium. […]. […] Data are means ± SE from 3 independent experiments performed in quadruplicates. Curves are fits of Eq. 3 (circles) and Eq. 4 (squares and triangles) to data prior to normalization.
# (§3) […]. […] […].
# [6] = target: T3, M5 muscarinic receptor (Homo sapiens, UniProt P08912); test: as above; design: host or cells: CHO cells, stably transfected; membranes
# T3 sequence (P08912 1-532): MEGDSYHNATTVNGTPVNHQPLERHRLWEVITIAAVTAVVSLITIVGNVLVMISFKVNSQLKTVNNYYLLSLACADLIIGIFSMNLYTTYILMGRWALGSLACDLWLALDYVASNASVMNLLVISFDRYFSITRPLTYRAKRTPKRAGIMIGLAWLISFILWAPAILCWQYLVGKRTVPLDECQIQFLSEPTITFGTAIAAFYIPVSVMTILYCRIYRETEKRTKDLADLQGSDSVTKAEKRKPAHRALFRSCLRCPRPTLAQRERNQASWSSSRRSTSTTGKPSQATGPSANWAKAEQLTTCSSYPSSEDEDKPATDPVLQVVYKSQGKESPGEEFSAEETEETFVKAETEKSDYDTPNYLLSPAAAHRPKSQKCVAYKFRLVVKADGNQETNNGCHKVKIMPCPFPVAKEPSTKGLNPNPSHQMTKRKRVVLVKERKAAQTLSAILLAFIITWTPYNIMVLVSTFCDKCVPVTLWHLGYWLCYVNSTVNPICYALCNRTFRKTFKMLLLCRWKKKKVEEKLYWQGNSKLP
# Text: as §2, §3
# [7] = target: T4, M2 muscarinic receptor (Homo sapiens, UniProt P08172); test: [3H]ACh saturation binding; design: host or cells: CHO cells, stably transfected; membrane preparation
# T4 sequence (P08172 1-466): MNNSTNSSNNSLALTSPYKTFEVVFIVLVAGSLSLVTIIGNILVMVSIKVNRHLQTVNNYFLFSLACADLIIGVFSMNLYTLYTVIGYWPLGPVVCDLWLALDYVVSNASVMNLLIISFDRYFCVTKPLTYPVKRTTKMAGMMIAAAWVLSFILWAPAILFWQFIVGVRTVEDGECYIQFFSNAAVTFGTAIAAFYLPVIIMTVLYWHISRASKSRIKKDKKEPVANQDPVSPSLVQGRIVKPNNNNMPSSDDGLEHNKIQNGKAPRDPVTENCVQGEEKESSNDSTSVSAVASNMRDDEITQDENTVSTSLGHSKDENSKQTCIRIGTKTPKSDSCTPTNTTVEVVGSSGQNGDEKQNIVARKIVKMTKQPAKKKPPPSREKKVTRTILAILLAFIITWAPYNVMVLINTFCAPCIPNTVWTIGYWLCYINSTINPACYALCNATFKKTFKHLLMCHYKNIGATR
# Text: as §1
# [8] = target: T4, M2 muscarinic receptor; test: Effect of rapacuronium on 1 nM [3H]NMS binding; design: host or cells: CHO cells, stably transfected; membrane preparation
# Text: Cooperativity factor greater than 1 denotes negative cooperativity and less than 1 positive cooperativity. Due to its log-normal error distribution factors of cooperativity are expressed as negative logarithms (pα) through the manuscript so negative values denotes negative cooperativity and positive value denotes positive cooperativity.
# [9] = target: T4, M2 muscarinic receptor; test: [35S]GTPγS binding to membranes; type: biochemical; design: host or cells: CHO cells, stably transfected; membrane preparation; settings: for EMAX of ACh on [^35S]GTPγS binding: fold of basal
# Experimental: For determination of [^35S]GTPγS binding to G-proteins in membranes a final concentration of 200 pM (M1, M3 and M5 receptors) or 500 pM (M2 and M4 receptors) of [^35S]GTPγS was used. Incubation medium was supplemented with 5 μM (M1, M3 and M5 receptors) or 50 μM (M2 and M4 receptors) GDP. […] Incubation with [^35S]GTPγS was carried out for 20 min and free ligand was removed by filtration as described above. Filtration and washing with ice-cold water lasted for 9 s (wash-aspirate button time).
# T1 sequence (P20309 whole entry): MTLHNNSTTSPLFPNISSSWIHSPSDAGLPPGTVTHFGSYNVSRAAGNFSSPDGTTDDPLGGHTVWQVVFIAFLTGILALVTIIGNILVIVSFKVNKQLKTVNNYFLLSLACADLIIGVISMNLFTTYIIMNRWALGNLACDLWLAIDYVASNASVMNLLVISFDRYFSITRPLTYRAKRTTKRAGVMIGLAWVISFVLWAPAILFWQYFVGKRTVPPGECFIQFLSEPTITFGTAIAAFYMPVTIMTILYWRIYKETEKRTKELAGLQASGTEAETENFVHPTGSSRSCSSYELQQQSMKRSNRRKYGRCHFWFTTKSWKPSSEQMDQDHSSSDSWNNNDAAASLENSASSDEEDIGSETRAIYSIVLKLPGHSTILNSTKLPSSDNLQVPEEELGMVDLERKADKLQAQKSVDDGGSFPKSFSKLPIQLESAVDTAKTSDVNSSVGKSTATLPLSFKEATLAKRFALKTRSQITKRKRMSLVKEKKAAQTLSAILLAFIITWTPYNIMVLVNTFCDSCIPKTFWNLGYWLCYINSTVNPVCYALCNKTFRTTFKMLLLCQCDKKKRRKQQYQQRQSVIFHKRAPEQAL
smiles,measurement,setting,value
C=CC[N+]1([C@H]2C[C@H]3[C@@H]4CC[C@H]5C[C@H](OC(C)=O)[C@@H](N6CCCCC6)C[C@]5(C)[C@H]4CC[C@]3(C)[C@H]2OC(=O)CC)CCCCC1 [rapacuronium],BMAX of [^3H]ACh,[1]; + 10 μM rapacuronium,0.40 ± 0.04 fmol/μg of protein
same,BMAX of [^3H]ACh,[1]; + 100 μM rapacuronium,0.37 ± 0.05 fmol/μg of protein
same,effect on [^35S]GTPγS binding,[2],did not decrease
same,"f2, fraction of sites with faster dissociation",[3],6.0 ± 2.0%
same,koff1 of [^3H]NMS dissociation,[3],0.017 ± 0.001* min^-1
same,koff2 of [^3H]NMS dissociation,[3],0.75 ± 0.11 min⁻¹
same,BMAX of [^3H]NMS,[4]; + 10 μM rapacuronium,1.17 ± 0.13 fmol/μg of protein
same,BMAX of [^3H]NMS,[4]; + 100 μM rapacuronium,1.06 ± 0.10 fmol/μg of protein
same,Kd,[5],3.24 µM
same,decrease in ACh low-affinity binding (cooperativity),[5]; M4,36 times
same,"pβ, cooperativity with ACh low affinity binding","[5]; M4, negative value = negative cooperativity",-1.56 ± 0.07
same,Kd,[6],11.2 µM
same,"pβ, cooperativity with ACh low affinity binding","[6]; M5, negative value = negative cooperativity",-1.28 ± 0.07
same,BMAX of [^3H]ACh,[7]; + 10 μM rapacuronium,0.74 ± 0.07 fmol/μg of protein
same,BMAX of [^3H]ACh,[7]; + 100 μM rapacuronium,0.77 ± 0.08 fmol/μg of protein
same,decrease in affinity of [^3H]NMS (cooperativity),[8]; M2,6.8 fold
same,"pα, cooperativity with [^3H]NMS","[8]; M2, negative value = negative cooperativity",-0.83 ± 0.07
same,Kd,[8]; read-out: pKA of rapacuronium (converted),2570 nM
same,EMAX of ACh on [^35S]GTPγS binding,[9]; + 0.1 μM rapacuronium,3.10 ± 0.15
same,EMAX of ACh on [^35S]GTPγS binding,[9]; + 1 μM rapacuronium,2.93 ± 0.13
same,EMAX of ACh on [^35S]GTPγS binding,[9]; + 10 μM rapacuronium,2.46 ± 0.18
same,EMAX of rapacuronium on [^35S]GTPγS binding,"[9]; rapacuronium alone, normalized to absence of rapacuronium",0.84 ± 0.06
same,EC50,"[9]; rapacuronium alone, read-out: pEC50 of rapacuronium on [^35S]GTPγS binding (converted)",28.2 µM
